{"source": "paper PMC9921564", "about": "“Novel Indole-Containing Hybrids Derived from Millepachine: Synthesis, Biological Evaluation and Antitumor Mechanism Study” (Molecules, 2023)", "key": {"[1]": {"test_system": "Caski (human epithelial cervical cancer cell line)", "test": "CCK-8 antiproliferative assay, Caski", "format": "cell-based", "conditions": "Ca-Ski, 48 h, read-out: IC50, Mean ± SE, Caski"}, "[2]": {"test_system": "C42B (human prostate cancer line)", "test": "CCK-8 antiproliferative assay, C42B", "format": "cell-based", "conditions": "48 h, read-out: IC50, Mean ± SE, C42B"}, "[3]": {"test_system": "A549 (human non-small-cell-lung cancer cell line)", "test": "CCK-8 antiproliferative assay, A549", "format": "cell-based", "conditions": "48 h, read-out: IC50, Mean ± SE, A549"}, "[4]": {"test_system": "HepG2 (human liver carcinoma cell line)", "test": "CCK-8 antiproliferative assay, HepG2", "format": "cell-based", "conditions": "48 h, read-out: IC50, Mean ± SE, HepG2"}, "[5]": {"test_system": "MCF-7 (human breast carcinoma cell line)", "test": "CCK-8 antiproliferative assay, MCF-7", "format": "cell-based", "conditions": "MCF7, 48 h, read-out: IC50, Mean ± SE, MCF-7"}, "[6]": {"test": "metabolic stability in human liver microsomes", "format": "in vitro ADME", "conditions": "for Remaining%: 37 °C, NADPH regenerating system", "description": "Metabolic stability is one of the most important properties in drug development. In this study, commercially available human liver microsomes were used to evaluate the metabolic stability of compound 14b. After incubation with human liver microsomes at 37 °C in vitro for an indicated time in a buffer solution containing a NADPH regenerating system, the residue of 14b was monitored by HPLC. CA-4 was used as the reference compound. […] As well known, a short half-life means a low bioavailability in vivo and is required for frequent administration with a high dose, which might result in drug accumulation and may produce related toxicity."}, "[7]": {"test_system": "five kinds of human cancer cell lines (A549, Caski, HepG2, C42B, MCF-7)", "test": "CCK-8 assay, panel of five human cancer cell lines", "format": "cell-based", "conditions": "48 h, read-out: IC50 values, range over five human cancer cell lines"}}, "data": [{"smiles": "COc1cc(C(=O)/C=C/c2cn(C)c3ccccc23)cc2c1OC(C)(C)C=C2", "note": "[5b, (E)-1-(8-methoxy-2,2-dimethyl-2H-chromen-6-yl)-3-(1-methyl-1H-indol-3-yl)prop-2-en-1-one]", "values": [{"measurement": "IC50", "setting": "[1]", "value": "729 ± 33", "unit": "nM"}, {"measurement": "IC50", "setting": "[2]", "value": "577 ± 21", "unit": "nM"}, {"measurement": "IC50", "setting": "[3]", "value": "362 ± 17", "unit": "nM"}, {"measurement": "IC50", "setting": "[4]", "value": "461 ± 17", "unit": "nM"}, {"measurement": "IC50", "setting": "[5]", "value": "350 ± 11", "unit": "nM"}]}, {"smiles": "COc1ccc(C(=O)c2cccc3c2ccn3C)c2c1C=CC(C)(C)O2", "note": "[11b, (5-methoxy-2,2-dimethyl-2H-chromen-8-yl)(1-methyl-1H-indol-4-yl)methanone]", "values": [{"measurement": "IC50", "setting": "[1]", "value": "516 ± 12", "unit": "nM"}, {"measurement": "IC50", "setting": "[2]", "value": "455 ± 15", "unit": "nM"}, {"measurement": "IC50", "setting": "[3]", "value": "208 ± 9", "unit": "nM"}, {"measurement": "IC50", "setting": "[4]", "value": "454 ± 21", "unit": "nM"}, {"measurement": "IC50", "setting": "[5]", "value": "651 ± 24", "unit": "nM"}]}, {"smiles": "COc1ccc(C(=O)c2ccc3[nH]ccc3c2)c2c1C=CC(C)(C)O2", "note": "[14a, (1H-indol-5-yl)(5-methoxy-2,2-dimethyl-2H-chromen-8-yl)methanone]", "values": [{"measurement": "IC50", "setting": "[1]", "value": "86 ± 9", "unit": "nM"}, {"measurement": "IC50", "setting": "[2]", "value": "89 ± 21", "unit": "nM"}, {"measurement": "IC50", "setting": "[3]", "value": "72 ± 4", "unit": "nM"}, {"measurement": "IC50", "setting": "[4]", "value": "142 ± 14", "unit": "nM"}, {"measurement": "IC50", "setting": "[5]", "value": "82 ± 11", "unit": "nM"}]}, {"smiles": "COc1cc(C(=O)c2cccc3[nH]ccc23)cc2c1OC(C)(C)C=C2", "note": "[19a, (1H-indol-4-yl)(8-methoxy-2,2-dimethyl-2H-chromen-6-yl)methanone]", "values": [{"measurement": "IC50", "setting": "[1]", "value": "2311 ± 19", "unit": "nM"}, {"measurement": "IC50", "setting": "[2]", "value": "2410 ± 42", "unit": "nM"}, {"measurement": "IC50", "setting": "[3]", "value": "1320 ± 16", "unit": "nM"}, {"measurement": "IC50", "setting": "[4]", "value": "3098 ± 21", "unit": "nM"}, {"measurement": "IC50", "setting": "[5]", "value": "1775 ± 4", "unit": "nM"}]}, {"smiles": "COc1cc(C(=O)c2cccc3c2ccn3C)cc2c1OC(C)(C)C=C2", "note": "[19b, (8-methoxy-2,2-dimethyl-2H-chromen-6-yl)(1-methyl-1H-indol-4-yl)methanone]", "values": [{"measurement": "IC50", "setting": "[1]", "value": "1100 ± 32", "unit": "nM"}, {"measurement": "IC50", "setting": "[2]", "value": "1080 ± 34", "unit": "nM"}, {"measurement": "IC50", "setting": "[3]", "value": "642 ± 81", "unit": "nM"}, {"measurement": "IC50", "setting": "[4]", "value": "898 ± 9", "unit": "nM"}, {"measurement": "IC50", "setting": "[5]", "value": "1020 ± 15", "unit": "nM"}]}, {"smiles": "COc1cc(C(=O)c2ccc3[nH]ccc3c2)cc2c1OC(C)(C)C=C2", "note": "[21a, (1H-indol-5-yl)(8-methoxy-2,2-dimethyl-2H-chromen-6-yl)methanone]", "values": [{"measurement": "IC50", "setting": "[1]", "value": "211 ± 12", "unit": "nM"}, {"measurement": "IC50", "setting": "[2]", "value": "209 ± 20", "unit": "nM"}, {"measurement": "IC50", "setting": "[3]", "value": "105 ± 11", "unit": "nM"}, {"measurement": "IC50", "setting": "[4]", "value": "441 ± 71", "unit": "nM"}, {"measurement": "IC50", "setting": "[5]", "value": "121 ± 21", "unit": "nM"}]}, {"smiles": "COc1cc(C(=O)c2ccc3c(ccn3C)c2)cc2c1OC(C)(C)C=C2", "note": "[21b, (8-methoxy-2,2-dimethyl-2H-chromen-6-yl)(1-methyl-1H-indol-5-yl)methanone]", "values": [{"measurement": "IC50", "setting": "[1]", "value": "106 ± 12", "unit": "nM"}, {"measurement": "IC50", "setting": "[2]", "value": "107 ± 6", "unit": "nM"}, {"measurement": "IC50", "setting": "[3]", "value": "82 ± 10", "unit": "nM"}, {"measurement": "IC50", "setting": "[4]", "value": "97 ± 31", "unit": "nM"}, {"measurement": "IC50", "setting": "[5]", "value": "99 ± 31", "unit": "nM"}]}, {"smiles": "COc1ccc(/C=C\\c2cc(OC)c(OC)c(OC)c2)cc1O", "note": "[CA-4, reference compound]", "values": [{"measurement": "t1/2", "setting": "[6]", "value": "< 1", "unit": "h"}, {"measurement": "Remaining%", "setting": "[6]; 30 min", "value": 70.2, "unit": "%"}, {"measurement": "Remaining%", "setting": "[6]; 60 min", "value": 28.3, "unit": "%"}, {"measurement": "Remaining%", "setting": "[6]; 90 min", "value": 20.5, "unit": "%"}, {"measurement": "Remaining%", "setting": "[6]; 120 min", "value": 18.7, "unit": "%"}]}, {"smiles": "COc1ccc(C(=O)c2ccc(OC)c3c2OC(C)(C)C=C3)cc1", "note": "[Compd. A, reference compound]", "values": [{"measurement": "IC50", "setting": "[7]", "value": "226 to 892", "unit": "nM"}, {"measurement": "IC50", "setting": "[1]", "value": "892 ± 24", "unit": "nM"}, {"measurement": "IC50", "setting": "[2]", "value": "526 ± 7", "unit": "nM"}, {"measurement": "IC50", "setting": "[3]", "value": "226 ± 35", "unit": "nM"}, {"measurement": "IC50", "setting": "[4]", "value": "758 ± 17", "unit": "nM"}, {"measurement": "IC50", "setting": "[5]", "value": "456 ± 21", "unit": "nM"}]}, {"smiles": "COc1ccc(/C=C/C(=O)c2ccc(OC)c3c2OC(C)(C)C=C3)cc1", "note": "[Millepachine]", "values": [{"measurement": "IC50", "setting": "[7]", "value": "2570 to 6710", "unit": "nM"}, {"measurement": "IC50", "setting": "[1]", "value": "6710 ± 233", "unit": "nM"}, {"measurement": "IC50", "setting": "[2]", "value": "3180 ± 384", "unit": "nM"}, {"measurement": "IC50", "setting": "[3]", "value": "2570 ± 131", "unit": "nM"}, {"measurement": "IC50", "setting": "[4]", "value": "3880 ± 244", "unit": "nM"}, {"measurement": "IC50", "setting": "[5]", "value": "4530 ± 338", "unit": "nM"}]}, {"smiles": "COc1cc(C(=O)/C=C/c2c[nH]c3ccccc23)cc2c1OC(C)(C)C=C2", "note": "[compound 5a, (E)-3-(1H-indol-3-yl)-1-(8-methoxy-2,2-dimethyl-2H-chromen-6-yl)prop-2-en-1-one]", "values": [{"measurement": "IC50", "setting": "[1]", "value": "1930 ± 35", "unit": "nM"}, {"measurement": "IC50", "setting": "[2]", "value": "1380 ± 21", "unit": "nM"}, {"measurement": "IC50", "setting": "[3]", "value": "812 ± 22", "unit": "nM"}, {"measurement": "IC50", "setting": "[4]", "value": "963 ± 32", "unit": "nM"}, {"measurement": "IC50", "setting": "[5]", "value": "1553 ± 14", "unit": "nM"}]}, {"smiles": "COc1ccc(C(=O)c2cccc3[nH]ccc23)c2c1C=CC(C)(C)O2", "note": "[compound 11a, (1H-indol-4-yl)(5-methoxy-2,2-dimethyl-2H-chromen-8-yl)methanone]", "values": [{"measurement": "IC50", "setting": "[1]", "value": "832 ± 11", "unit": "nM"}, {"measurement": "IC50", "setting": "[2]", "value": "911 ± 34", "unit": "nM"}, {"measurement": "IC50", "setting": "[3]", "value": "631 ± 18", "unit": "nM"}, {"measurement": "IC50", "setting": "[4]", "value": "998 ± 34", "unit": "nM"}, {"measurement": "IC50", "setting": "[5]", "value": "816 ± 45", "unit": "nM"}]}]}
